According to US11752156B2, “Compositions and methods for treating hyperproliferative skin disorders” (Athenex HK Innovative Limited, priority 2018, dated 2023):
Where “and” joins values, the source holds several entries; their conditions need not be identical. Equal entries are not always repeated. Where two headings read alike, the source gives them in different places.

Experiments:
[1] = test system: human keratinocyte cell line; assay: combinatorial dose response surface study of cell viability (PSI), KX01 and calcipotriol; assay type: cell-based; conditions: model estimate
Description: FIG. 6: Dose response surface of cell viability versus calcipotriol concentration versus KX01 concentration. Synergistic combinations of calcipotriol and KX01 are below the surface of additivity (indicating enhanced inhibition of growth), and antagonistic combinations are above the surface of additivity (indicative of reduced inhibition of growth). Individual dose response curves for KX01 and calcipotriol as determined above can be used to generate dose response surfaces representative of the additive effects of these compounds on keratinocyte growth. […] A PSI value of 1 corresponds to an additive effect. A PSI value of less than 1 indicates a synergistic effect, and a PSI value of greater than 1 indicates an antagonistic effect. Cell viability was measured in a number of experiments. In Experiment 1, the concentrations of calcipotriol were: 0, 3, 9, 27, 81, and 243 nM, and the concentrations of KX01 were: 0, 5, 10, 20, 40, 60, 80, and 160 nM. In Experiment 2, the concentrations of calcipotriol were: 0, 5, 10, 20, 40, 80, 160, 320, and 1280 nM, and the concentrations of KX01 were: 1, 3, 9, 27, and 81 nM. […] It is notable that unexpected synergy is observed across a range of concentrations and combinations. Tables 7, 8, and 9 show the results for determination of individual IC50 and maximum inhibitory concentration values for KX01 and calcipotriol, as well as the PSI value for the drug combination. […]

[2] = test system: squamous cell human carcinoma cell line (SCC A431); assay: MTT cell proliferation assay, 72 hours, dark or blue light, squamous cell carcinoma; assay type: cell-based; conditions: for inhibition at 0.005 µM / inhibition at 0.02 µM / inhibition at 0.08 µM / inhibition at 0.32 µM / inhibition at 1.28 µM: Homo sapiens, read-out: growth inhibition relative to untreated control
Experimental: The effects of combined treatment with KX01, a vitamin D derivative, and/or blue/UV light exposure were characterized using a cell proliferation assay. Cell proliferation was assessed by using an MTT assay. Cells were seeded in 96-well plate (3,000-5,000 cells per well) and treated with test compounds at varying concentrations (e.g. KX01: 5 to 80 nM; calcipotriol 5 to 1,280 nM) for 72 hours, either in the dark or exposed to blue light irradiation (for 2, 4, or 6 hours). To each well, 10 μl of 3-(4,5-dimethylthiazol-2-yl)-2,5-diphenyltetrazolium bromide (MTT) (RPI Corporation™) solution (5 mg/ml in PBS) was added and incubated at 37° C. for 3 hours. Next, 100 μl of 20% SDS was added to each well. After overnight incubation at 37° C., the absorbance in each well was measured at 570 nm in a microplate reader (Molecular Devices™). The cell growth curve and GI50s were calculate using GraphPad Prism™ 5 software. Similar studies were performed using a squamous cell carcinoma cell line (SCC A431). Tables 19 and 20 show the results of cell growth inhibition studies (expressed as a percentage relative to control cell growth) for treatment with either KX01 or calcipotriol in combination with exposure to blue light. […] The percentage of growth inhibition relative to untreated control is shown. Tables 21 to 24 show the effects of combined treatment with KX01, calcipotriol, and exposure to blue light at 0 hours, 2 hours, 4 hours, and 6 hours of light exposure (respectively) on human squamous cell carcinoma cells. Values are expressed as the percentage of growth inhibition relative to cells grown under control conditions (0 hours blue light, [KX01]=0, [calcipotriol]=0). The percentage of growth inhibition relative to an untreated control is shown. […] Results are shown below in Tables 31 and 32, which show results for KX01 and calcipotriol (respectively). Values are expressed as the percentage of growth inhibition relative to cells grown under control conditions (0 hours blue light, [KX01]=0, [calcipotriol]=0). […] Results are shown below in Tables 33 to Table 36, which show results from 0, 2, 4, and 6 hours of blue light exposure (respectively). Values are expressed as the percentage of growth inhibition relative to cells grown under control conditions (0 hours blue light, [KX01]=0, [calcipotriol]=0).

C=C1/C(=C\C=C2/CCC[C@]3(C)[C@@H]([C@H](C)/C=C/[C@@H](O)C4CC4)CC[C@@H]23)C[C@@H](O)C[C@@H]1O [Calcipotriol, calcipotriol]
IC50 ([1]; Homo sapiens, Keratinocyte): 112 nM | IC50 [1]: 59.3 nM | Max Inhibition [1]: 0.474 and 0.36 and 0.439 | inhibition at 0.005 µM ([2]; A-431, 0 h, calcipotriol 5 nM, blue light 0 h): 19% | inhibition at 0.02 µM ([2]; A-431, 0 h, calcipotriol 20 nM, blue light 0 h): 30% | inhibition at 0.08 µM ([2]; A-431, 0 h, calcipotriol 80 nM, blue light 0 h): 40% | inhibition at 0.32 µM ([2]; A-431, 0 h, calcipotriol 320 nM, blue light 0 h): 41% | inhibition at 1.28 µM ([2]; A-431, 0 h, calcipotriol 1,280 nM, blue light 0 h): 36% | inhibition at 0.005 µM ([2]; A-431, 2 h, calcipotriol 5 nM, blue light 2 h): 26% | inhibition at 0.02 µM ([2]; A-431, 2 h, calcipotriol 20 nM, blue light 2 h): 36% | inhibition at 0.08 µM ([2]; A-431, 2 h, calcipotriol 80 nM, blue light 2 h): 41% | inhibition at 0.32 µM ([2]; A-431, 2 h, calcipotriol 320 nM, blue light 2 h): 35% | inhibition at 1.28 µM ([2]; A-431, 2 h, calcipotriol 1,280 nM, blue light 2 h): 38% | inhibition at 0.005 µM ([2]; A-431, 4 h, calcipotriol 5 nM, blue light 4 h): 49% | inhibition at 0.02 µM ([2]; A-431, 4 h, calcipotriol 20 nM, blue light 4 h): 44% | inhibition at 0.08 µM ([2]; A-431, 4 h, calcipotriol 80 nM, blue light 4 h): 47% | inhibition at 0.32 µM ([2]; A-431, 4 h, calcipotriol 320 nM, blue light 4 h): 49% | inhibition at 1.28 µM ([2]; A-431, 4 h, calcipotriol 1,280 nM, blue light 4 h): 43% | inhibition at 0.005 µM ([2]; A-431, 6 h, calcipotriol 5 nM, blue light 6 h): 67% | inhibition at 0.02 µM ([2]; A-431, 6 h, calcipotriol 20 nM, blue light 6 h): 69% | inhibition at 0.08 µM ([2]; A-431, 6 h, calcipotriol 80 nM, blue light 6 h): 67% | inhibition at 0.32 µM ([2]; A-431, 6 h, calcipotriol 320 nM, blue light 6 h): 67% | inhibition at 1.28 µM ([2]; A-431, 6 h, calcipotriol 1,280 nM, blue light 6 h): 68% | growth inhibition relative to untreated control ([2]; calcipotriol 5 nM, blue light 0 h): 14% | growth inhibition relative to untreated control ([2]; calcipotriol 5 nM, blue light 2 h): 27% | growth inhibition relative to untreated control ([2]; calcipotriol 5 nM, blue light 4 h): 50% | growth inhibition relative to untreated control ([2]; calcipotriol 5 nM, blue light 6 h): 62% | growth inhibition relative to untreated control ([2]; calcipotriol 20 nM, blue light 2 h): 39% | growth inhibition relative to untreated control ([2]; calcipotriol 20 nM, blue light 4 h): 48% | growth inhibition relative to untreated control ([2]; calcipotriol 20 nM, blue light 6 h): 63% | growth inhibition relative to untreated control ([2]; calcipotriol 80 nM, blue light 0 h): 27% | growth inhibition relative to untreated control ([2]; calcipotriol 80 nM, blue light 4 h): 50% | growth inhibition relative to untreated control ([2]; calcipotriol 80 nM, blue light 6 h): 61% | growth inhibition relative to untreated control ([2]; calcipotriol 320 nM, blue light 0 h): 31% | growth inhibition relative to untreated control ([2]; calcipotriol 320 nM, blue light 2 h): 37% | growth inhibition relative to untreated control ([2]; calcipotriol 320 nM, blue light 4 h): 51% | growth inhibition relative to untreated control ([2]; calcipotriol 320 nM, blue light 6 h): 60% | growth inhibition relative to untreated control ([2]; calcipotriol 1,280 nM, blue light 0 h): 28% | growth inhibition relative to untreated control ([2]; calcipotriol 1,280 nM, blue light 2 h): 39% | growth inhibition relative to untreated control ([2]; calcipotriol 1,280 nM, blue light 4 h): 48% | growth inhibition relative to untreated control ([2]; calcipotriol 1,280 nM, blue light 6 h): 58% and 57%
